According to PMC3510438, “The transmembrane tyrosines Y56, Y91 and Y167 play important roles in determining the affinity and transport rate of the rabbit proton-coupled peptide transporter PepT1” (The International Journal of Biochemistry & Cell Biology, 2009):
Numbering of substitutions follows the chain as printed. Values joined by “and” are separate entries in the source; they are usually repeats but may differ in a detail not shown here. Identical values can stand only once. Where a SMILES comes first, the peptide text is derived from it.

Columns and labels:
[1] = target: T1, Y56F-rPepT1 (Oryctolagus cuniculus, UniProt P36836, Y56F); assay: Uptake of tracer [3H]-D-Phe-L-Gln into Xenopus oocytes; format: cell-based, rabbit; conditions: pHout 5.5; 1 h
T1 construct: expressed in transfected cells; host or cells: Xenopus laevis oocytes injected with cRNA
T1 sequence (P36836 1-707 Y56F): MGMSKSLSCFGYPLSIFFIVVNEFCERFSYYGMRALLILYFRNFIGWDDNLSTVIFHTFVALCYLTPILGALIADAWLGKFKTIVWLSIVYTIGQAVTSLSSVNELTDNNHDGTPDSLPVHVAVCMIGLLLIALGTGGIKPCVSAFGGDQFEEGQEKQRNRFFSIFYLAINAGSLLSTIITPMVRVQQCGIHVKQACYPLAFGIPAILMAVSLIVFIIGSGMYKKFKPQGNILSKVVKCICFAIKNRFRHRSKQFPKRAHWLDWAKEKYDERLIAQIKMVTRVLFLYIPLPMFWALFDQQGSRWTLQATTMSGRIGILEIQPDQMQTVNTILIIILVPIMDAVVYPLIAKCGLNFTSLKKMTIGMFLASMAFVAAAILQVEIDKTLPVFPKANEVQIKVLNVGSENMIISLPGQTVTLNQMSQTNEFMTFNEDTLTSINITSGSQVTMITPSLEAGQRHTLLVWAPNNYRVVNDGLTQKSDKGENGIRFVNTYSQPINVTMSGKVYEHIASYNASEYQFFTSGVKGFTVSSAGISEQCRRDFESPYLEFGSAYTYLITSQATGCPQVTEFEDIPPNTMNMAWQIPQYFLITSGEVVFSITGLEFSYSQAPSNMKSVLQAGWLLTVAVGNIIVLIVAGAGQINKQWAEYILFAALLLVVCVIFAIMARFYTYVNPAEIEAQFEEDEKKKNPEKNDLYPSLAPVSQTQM
Procedure: (§1) rPepT1 constructs were linearised with XbaI (New England Biolabs, UK) and cRNA generated by in vitro transcription (T7 mMessage mMachine, Ambion, Cambridgeshire, UK). Xenopus laevis oocytes were obtained under MS222 anaesthesia (0.2%, w/v) in accordance with the UK Animals (Scientific Procedures) Act, 1986, and maintained at 18 °C in modified Barth's medium (88 mM NaCl, 1 mM KCl, 0.82 mM MgSO4, 2.4 mM NaHCO3, 0.42 mM CaCl2, 10 mM Hepes, 5 mM sodium pyruvate, 50 μg ml^−1 gentamicin (Fluka, Poole, UK), adjusted to pH 7.6 with 1 M NaOH). Transport measurements were performed at least 72 h after micro-injection of oocytes with 27nl cRNA (1 μg/μl), with medium changed daily.
(§2) Uptake of [^3H]-D-Phe-L-Gln (17.4 Ci/mmole, custom synthesised, Cambridge Research Biochemicals, Stockton-on-Tees, UK) was performed as previously described ([Meredith, 2004]). Briefly, 5 oocytes were incubated in 100 μl of uptake medium (95 mM NaCl, 2 mM KCl, 1 mM CaCl2, 0.42 mM MgCl2, 10 mM Tris/Hepes pH 7.4 or Tris/Mes pH 5.5) with tracer (0.4 μM) [^3H]-D-Phe-L-Gln. After incubation, the oocytes were washed sequentially five times in 1 ml of ice-cold 120 mM NaCl solution, lysed individually with 100 μl 2% (w/v) SDS and liquid scintillation counted. As a control non-injected oocytes were also incubated in uptake medium with D-Phe-L-Gln as above.

[2] = target: T2, wild-type rPepT1 (Oryctolagus cuniculus, UniProt P36836); assay: Competition of [3H]-D-Phe-L-Gln uptake into Xenopus oocytes, Ki by method of Deves and Boyd; format: cell-based, rabbit; conditions: against 0.4 μM [3H]-D-Phe-L-Gln uptake
T2 construct: expressed in transfected cells; host or cells: Xenopus laevis oocytes injected with cRNA
T2 sequence (P36836 1-707): T1 sequence (P36836 1-707 Y56F) with F56Y
Procedure: as §1, §2
The affinity of wild-type and mutant rPepT1 transporters were assessed by competition studies with 0.4 μM [^3H]-D-Phe-L-Gln and Gly-L-Gln present in the uptake medium in concentrations from 0 to 2 mM using the protocol above, and the Ki calculated using the method of [Deves and Boyd (1989)].

Compound | decrease in rate of uptake compared to the wild-type [1] | Ki ([2]; pHout 5.5) | Ki ([2]; pHout 7.4)
[^3H]-D-Phe-L-Gln | ~90% | – | –
NCC(=O)N[C@@H](CCC(N)=O)C(=O)O [Gly-L-Gln] (H-Gly-Gln-OH) | – | 320 µM and 330 µM | 110 ± 10 µM
